According to ChEMBL document CHEMBL1132402, “Conformations of trypsin-bound amidine inhibitors of blood coagulant factor Xa by double REDOR NMR and MD simulations” (J Med Chem, 1999):
pKi: −log10 of the molar value.

Assays:
Serine protease 1 = molecular target: T1, Serine protease 1 (Bos taurus, UniProt P00760); assay: Inhibitory constant against trypsin
T1 sequence (P00760 whole entry): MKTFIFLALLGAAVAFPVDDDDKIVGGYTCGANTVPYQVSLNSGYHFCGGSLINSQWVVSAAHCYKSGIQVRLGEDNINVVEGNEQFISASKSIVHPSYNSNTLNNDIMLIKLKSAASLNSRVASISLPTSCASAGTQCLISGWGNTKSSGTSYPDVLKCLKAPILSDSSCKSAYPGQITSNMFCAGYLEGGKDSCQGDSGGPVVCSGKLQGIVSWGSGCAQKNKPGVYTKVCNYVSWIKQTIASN

Coagulation factor X = Coagulation factor X (Homo sapiens, UniProt P00742); assay: Inhibitory constant against Coagulation factor Xa (factor Xa); design: species or system Bos taurus
Chain of Coagulation factor X (P00742 41-179 limits assumed): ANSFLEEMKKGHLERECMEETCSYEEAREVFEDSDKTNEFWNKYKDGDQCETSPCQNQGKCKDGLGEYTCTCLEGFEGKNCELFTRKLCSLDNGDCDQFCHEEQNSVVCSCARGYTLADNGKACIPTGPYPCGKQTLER
Chain of Coagulation factor X (P00742 235-488 limits assumed): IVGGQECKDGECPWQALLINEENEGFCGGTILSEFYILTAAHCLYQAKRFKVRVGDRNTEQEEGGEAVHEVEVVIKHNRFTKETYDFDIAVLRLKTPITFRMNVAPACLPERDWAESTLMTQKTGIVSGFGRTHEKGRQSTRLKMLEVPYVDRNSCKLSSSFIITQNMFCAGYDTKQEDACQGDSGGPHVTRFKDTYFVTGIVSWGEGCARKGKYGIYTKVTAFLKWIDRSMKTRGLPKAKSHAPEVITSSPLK

Row | SMILES | pKi (Serine protease 1) | pKi (Coagulation factor X)
1 | Cc1c(F)c(Oc2cccc(C(=N)N)c2)cc(Oc2cccc(C(=N)N)c2)c1F | 6.13 | 7.92
2 | Cc1c(F)c(Oc2cccc(CN)c2)cc(Oc2cccc(C(=N)N)c2)c1F | 5.54 | 5.85
